“And” between values parts separate entries of the source, which are not always exact repeats. Equal values may be shown once.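 Protocol summary: plate cells (96-well), add compound at 5 concentrations, incubate 48 h, interpolate endpoints linearly. GI50 marks 50% less growth. At the TGI there is no net growth.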

Among the test systems are DMS 273 small cell lung; HL-60(TB) leukemia; A549 NSCLC; SF-295 CNS; DLD-1 colon; HT29 colon; OVCAR-4 ovarian; M14 melanoma; SR leukemia.
What all share (assay): growth of human tumour cells (NCI), 48 h

On to `Cc1cc(N(CCC#N)CCC#N)ccc1N=Nc1ccccc1[N+](=O)[O-]`, for which the TGI with DMS 273 small cell lung, in the assay with HL-60(TB) leukemia, with A549 NSCLC, with SF-295 CNS, with DLD-1 colon and in the assay with HT29 colon was more than 100 µM in each case. The TGI with OVCAR-4 ovarian and with M14 melanoma was more than 100 µM each time.
Regarding `C=CC[P@@]1(=O)O[C@H](c2ccccc2)C(C)N1C(C)C` (stereo partly drawn), the TGI with DMS 273 small cell lung, with HL-60(TB) leukemia, in the assay with A549 NSCLC, in the assay on SF-295 CNS, with DLD-1 colon and in the assay with HT29 colon was more than 100 µM each time. The TGI in the assay on OVCAR-4 ovarian, with M14 melanoma and in the assay on SR leukemia was more than 100 µM each time.
Consider `COC(=O)C1Cc2c(n(C)c3ccccc23)C(c2ccccc2)N1` (stereo not drawn), for which the TGI in the assay with DMS 273 small cell lung is more than 100 µM; in the assay with HL-60(TB) leukemia, 48 µM; with A549 NSCLC it was more than 100 µM; with SF-295 CNS, more than 100 µM; with HT29 colon it was more than 100 µM; in the assay on OVCAR-4 ovarian, more than 100 µM. Further, the TGI in the assay on M14 melanoma and with SR leukemia was more than 100 µM in each case.
As to `CC(C)(C)c1ccc(Oc2ccc(C#N)c(C#N)c2)c(C(C)(C)C)c1`, the TGI in the assay with DMS 273 small cell lung is 28.5 µM; in the assay with HL-60(TB) leukemia, 32.3 µM; in the assay on A549 NSCLC it was more than 100 µM; in the assay on SF-295 CNS, more than 100 µM; in the assay on DLD-1 colon, more than 100 µM; in the assay on HT29 colon, more than 100 µM. For the same molecule, the TGI is more than 100 µM in the assay on OVCAR-4 ovarian, more than 100 µM in the assay with M14 melanoma and 40.3 µM in the assay with SR leukemia.
As to `O=C(c1ccccc1)c1ccc2cccc(O)c2n1`, the TGI with DMS 273 small cell lung is more than 100 µM; in the assay on A549 NSCLC, more than 100 µM; in the assay with SF-295 CNS, 52.7 µM; in the assay with DLD-1 colon it was more than 100 µM; in the assay with OVCAR-4 ovarian it was more than 100 µM; in the assay with M14 melanoma, 28 µM. Further, in the assay with SR leukemia, the TGI was more than 100 µM.
Take `COc1c2c(c(OC)c3c(=O)cc(C/C(=N/NC(=O)C[n+]4ccccc4)C(=O)Nc4cc(C)ccc4C)oc13)OCO2`: the TGI with DMS 273 small cell lung, with HL-60(TB) leukemia, in the assay with A549 NSCLC, in the assay with DLD-1 colon, in the assay with HT29 colon and in the assay on OVCAR-4 ovarian was more than 100 µM each time. Besides, the TGI in the assay on M14 melanoma is more than 100 µM.
With `O=C1C2c3[nH]c4ccccc4c3C3CCSCC3C2C(=O)N1c1ccccc1` (stereo not drawn), the TGI with DMS 273 small cell lung, with HL-60(TB) leukemia, with A549 NSCLC, in the assay on SF-295 CNS, in the assay on DLD-1 colon and in the assay with HT29 colon was more than 100 µM throughout. Further, the TGI in the assay with OVCAR-4 ovarian and with M14 melanoma was more than 100 µM throughout.
Take `Cc1ccc(C)c(NC(=O)CC2C(=O)Nc3ccccc3S2(=O)=O)c1` (stereo not drawn): the TGI in the assay with DMS 273 small cell lung, in the assay on HL-60(TB) leukemia, with A549 NSCLC, in the assay with SF-295 CNS, with DLD-1 colon and in the assay with HT29 colon was more than 100 µM each time. In addition, the TGI with OVCAR-4 ovarian was 38.7 µM; with M14 melanoma, more than 100 µM; with SR leukemia, more than 100 µM.
As for `COCC1N=C(c2ccc(OC)c(OCc3ccccc3)c2OC)O[C@H]1c1ccccc1` (stereo partly drawn), the TGI was 38.6 µM with DMS 273 small cell lung; 40.4 µM with HL-60(TB) leukemia; more than 100 µM in the assay with A549 NSCLC; 93.8 µM in the assay with SF-295 CNS; more than 100 µM in the assay with DLD-1 colon; 59.7 µM in the assay on HT29 colon. Moreover, the TGI in the assay on OVCAR-4 ovarian is more than 100 µM; with M14 melanoma, 35.2 µM.
For the molecule `N.N.NCCCCN.O=C([O-])CC(=O)[O-].O=C([O-])CC(=O)[O-].[Pt+4].[Pt+4]`, the GI50 in the assay on DMS 273 small cell lung is 89.2 µM; in the assay with HL-60(TB) leukemia, 11.5 µM; in the assay with A549 NSCLC it was more than 100 µM; in the assay with SF-295 CNS, more than 100 µM; in the assay with DLD-1 colon, more than 100 µM; in the assay on HT29 colon, more than 100 µM. In addition, the figures for the GI50 in the assay with OVCAR-4 ovarian, in the assay with M14 melanoma and in the assay on SR leukemia were more than 100 µM, more than 100 µM and 30.4 µM, respectively. Further, the TGI with DMS 273 small cell lung, in the assay with HL-60(TB) leukemia, in the assay on A549 NSCLC, in the assay on SF-295 CNS, with DLD-1 colon and in the assay with HT29 colon was more than 100 µM throughout. For the same molecule, the TGI in the assay on OVCAR-4 ovarian, in the assay on M14 melanoma and in the assay with SR leukemia was more than 100 µM in each case.
Consider `N#C[C@]12CC3(CC[C@H]1CC1(C2)OCCO1)OCCO3`, for which the TGI in the assay on DMS 273 small cell lung, in the assay on HL-60(TB) leukemia, with A549 NSCLC, in the assay on DLD-1 colon, with OVCAR-4 ovarian and with M14 melanoma was more than 100 µM each time. This molecule displayed a TGI with SR leukemia of more than 100 µM.
Take `Brc1nc2c3ccccc3ncn2c1Br`: the TGI in the assay with DMS 273 small cell lung, with HL-60(TB) leukemia, with A549 NSCLC, in the assay on SF-295 CNS, with DLD-1 colon and with HT29 colon was more than 100 µM in each case. Further, the TGI in the assay with OVCAR-4 ovarian was 42.7 µM; in the assay on M14 melanoma it was more than 100 µM; in the assay on SR leukemia it was more than 100 µM.
In the case of `Cc1c2cc[n+](C)cc2c(C)c2c1[nH]c1ccc(OC(C)C)cc12`, the TGI in the assay on DMS 273 small cell lung was 10.9 µM and 12.5 µM; in the assay on HL-60(TB) leukemia it was 11.2 µM and 39.9 µM; in the assay on A549 NSCLC, more than 100 µM; with DLD-1 colon, more than 100 µM; with HT29 colon it was 18.5 µM and 24.4 µM; in the assay with OVCAR-4 ovarian, 17.4 µM and > 45.2 µM. The TGI in the assay on M14 melanoma was 35 µM and 26.7 µM; with SR leukemia, 10.5 µM and > 54.3 µM. Moreover, the GI50 in the assay on SF-295 CNS is 0.231 µM and 1.7 µM; with DLD-1 colon, 1.91 µM and 6.02 µM; in the assay with SR leukemia, 2.34 µM and 9.55 µM.
In the case of `CCCCCCC(O)C/C=C/CCCCCC/C(C(=O)OC)=C(/O)C(=O)OCC` (stereo not drawn), the TGI with DMS 273 small cell lung, in the assay on HL-60(TB) leukemia, with A549 NSCLC, in the assay with SF-295 CNS, with DLD-1 colon and with HT29 colon was more than 100 µM in each case. For the same molecule, the TGI with OVCAR-4 ovarian, with M14 melanoma and with SR leukemia was more than 100 µM throughout.
With `O=C(Nc1ccccc1)O/N=C1/CCCC/C1=C\c1ccccc1`, the TGI came to 31.2 µM in the assay on DMS 273 small cell lung; 29.9 µM in the assay on SF-295 CNS; 29.4 µM in the assay with DLD-1 colon; 95.1 µM in the assay on HT29 colon; 30.3 µM with OVCAR-4 ovarian; 32.8 µM in the assay with M14 melanoma. Besides, the TGI in the assay on SR leukemia is 43.6 µM.
Take `CC(=O)CC(=O)CCCC(=O)Nc1ccc(Cl)cc1Cl`: the TGI with DMS 273 small cell lung, with HL-60(TB) leukemia, in the assay on A549 NSCLC, in the assay on SF-295 CNS, in the assay on DLD-1 colon and in the assay with HT29 colon was more than 100 µM in each case. In addition, the TGI in the assay with OVCAR-4 ovarian, with M14 melanoma and with SR leukemia was more than 100 µM throughout.
`O=[N+]([O-])c1ccc(OCCNc2cccc3ccccc23)cc1`: the TGI in the assay on DMS 273 small cell lung, in the assay with A549 NSCLC, in the assay with SF-295 CNS, in the assay on DLD-1 colon, in the assay on HT29 colon and in the assay with OVCAR-4 ovarian was more than 100 µM each time. In the assay on M14 melanoma, this molecule gave a TGI of more than 100 µM.
Turning to `CC1(c2ccccc2)CC12C(=O)NC(=O)NC2=O` (stereo not drawn), the TGI in the assay on DMS 273 small cell lung, with HL-60(TB) leukemia, with A549 NSCLC, with SF-295 CNS, with DLD-1 colon and in the assay with HT29 colon was more than 100 µM throughout. Further, the TGI in the assay with OVCAR-4 ovarian, with M14 melanoma and with SR leukemia was more than 100 µM in each case.
Regarding `CC1=C2C(=CC(C)(CO)C2O)C(=O)C(C)(O)C12CC2` (stereo not drawn), the TGI in the assay on DMS 273 small cell lung was determined as 0.00892 µM; in the assay on HL-60(TB) leukemia, 0.00697 µM; in the assay on A549 NSCLC it was 0.0902 µM; with SF-295 CNS, 0.00392 µM; with DLD-1 colon it was 0.0738 µM; with HT29 colon, 0.0446 µM. For the same molecule, the TGI in the assay with OVCAR-4 ovarian was found to be 0.0131 µM; with M14 melanoma, 0.0104 µM; with SR leukemia, 0.146 µM. Besides, the GI50 in the assay on OVCAR-4 ovarian was 0.00378 µM.
As for `NC(=O)c1csc(C2O[C@@H](COP(=O)(O)OP(=O)(O)OC[C@H]3OC(n4cnc5c(N)ncnc54)[C@H](O)[C@@H]3O)[C@H](O)[C@@H]2O)n1` (stereo partly drawn), the TGI in the assay with DMS 273 small cell lung, with HL-60(TB) leukemia, with A549 NSCLC, with SF-295 CNS, with DLD-1 colon and in the assay with HT29 colon was more than 100 µM each time. Besides, the TGI in the assay with OVCAR-4 ovarian and with M14 melanoma was more than 100 µM in each case.
Take `CC(C)(C)C(=O)Nc1ccccc1Br`: the TGI in the assay on DMS 273 small cell lung, in the assay with HL-60(TB) leukemia, in the assay with A549 NSCLC, in the assay on SF-295 CNS, with DLD-1 colon and in the assay on HT29 colon was more than 100 µM each time. Besides, the TGI in the assay on OVCAR-4 ovarian and in the assay with M14 melanoma was more than 100 µM in each case.
Turning to `COC(=O)C(=O)C(C(=O)C(=O)Nc1ccc([N+](=O)[O-])cc1[N+](=O)[O-])c1nc2ccc([N+](=O)[O-])cc2[nH]c1=O` (stereo not drawn), the TGI in the assay on DMS 273 small cell lung, in the assay with HL-60(TB) leukemia, in the assay on A549 NSCLC, with SF-295 CNS, with DLD-1 colon and with HT29 colon was more than 100 µM each time. Moreover, the TGI in the assay on OVCAR-4 ovarian, in the assay on M14 melanoma and with SR leukemia was more than 100 µM in each case.
`COC(=O)[C@H](C)[C@H]1CC[C@@](C)([C@H]2CC3C(C)(C)[C@H]4CCC(C)=C[C@H]4C[C@@]3(C)O2)OO1` (stereo partly drawn): the TGI in the assay with DMS 273 small cell lung worked out at 26.1 µM; in the assay with HL-60(TB) leukemia it was 5.57 µM; in the assay on A549 NSCLC, 23.2 µM; with SF-295 CNS, 28.4 µM; with DLD-1 colon, 25.9 µM; with HT29 colon, 27.2 µM. In addition, the TGI in the assay with OVCAR-4 ovarian came out at 30.1 µM; in the assay on M14 melanoma, 25.8 µM; with SR leukemia, 30.5 µM.

The values above are taken from PubChem BioAssay (NCI).
